Where “and” joins values, the source holds several entries; their conditions need not be identical. Equal entries are not always repeated.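 Interpolation was linear, between the two tested concentrations surrounding the appropriate level; five concentrations were tested over 48 hours in 96-well plates. GI50: concentration for 50% inhibition of growth. TGI: concentration producing complete growth inhibition.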
Assays:
Assay in all cases: NCI-60 cell line screen, 48 h
HT29 colon = test system: HT29 colon
MOLT-4 leukemia = test system: MOLT-4 leukemia
NCI-H460 lung = test system: NCI-H460 lung
OVCAR-8 ovarian = test system: OVCAR-8 ovarian
SW-620 colon = test system: SW-620 colon
UACC-62 melanoma = test system: UACC-62 melanoma
NCI-H522 lung = test system: NCI-H522 lung
OVCAR-3 ovarian = test system: OVCAR-3 ovarian
TK-10 renal = test system: TK-10 renal
DU-145 prostate = test system: DU-145 prostate

Structure (SMILES)	GI50 (HT29 colon) [µM]	TGI (HT29 colon)	GI50 (MOLT-4 leukemia) [µM]	TGI (MOLT-4 leukemia)	GI50 (NCI-H460 lung) [µM]	TGI (NCI-H460 lung)	GI50 (OVCAR-8 ovarian) [µM]	TGI (OVCAR-8 ovarian)	GI50 (SW-620 colon) [µM]	TGI (SW-620 colon)	GI50 (UACC-62 melanoma) [µM]	TGI (UACC-62 melanoma)	TGI (NCI-H522 lung) [µM]	TGI (OVCAR-3 ovarian)	TGI (TK-10 renal) [µM]	TGI (DU-145 prostate) [µM]	GI50 (OVCAR-3 ovarian) [µM]	GI50 (NCI-H522 lung) [µM]	GI50 (TK-10 renal) [µM]
COc1cc2nc(-c3ccc(Cl)cc3)cc(OCCCN3CCOCC3)c2cc1OC	0.61	> 100 µM	2.85	> 100 µM	0.958	> 100 µM	2.15	> 100 µM	3.57	> 100 µM	2.26	6.35 µM	–	–	–	–	–	–	–
COc1ccc(CNc2cnc3ccc(N)cc3n2)cc1	–	> 100 µM	–	> 100 µM	–	> 100 µM	–	> 100 µM	–	> 100 µM	–	–	> 100	> 100 µM	> 100	–	–	–	–
Cc1c(N2CCOCC2)nc2ccc(Cl)cc2c1-c1ccccc1	–	> 100 µM	–	> 100 µM	–	> 100 µM	–	> 100 µM	–	> 100 µM	–	> 100 µM	> 100	> 100 µM	> 100	–	–	–	–
O=[N+]([O-])c1ccc(C[P+]2(c3ccccc3)CCCCC2)cc1	–	> 100 µM	–	> 100 µM	–	> 100 µM	–	> 100 µM	–	> 100 µM	–	> 100 µM	> 100	> 100 µM	> 100	–	–	–	–
Cc1nc2ccccc2nc1CC(=O)C(=O)Nc1ccc(Cl)cc1Cl	–	–	–	> 100 µM	–	> 100 µM	–	> 100 µM	–	> 100 µM	–	> 100 µM	> 100	> 100 µM	> 100	–	–	–	–
[N-]=[N+]=CC(=O)C1CCCN1C(=O)c1ccccc1 (configuration not stated)	–	> 10 µM	–	> 10 µM	–	> 10 µM	–	> 10 µM	–	> 10 µM	–	> 10 µM	–	> 10 µM	> 10	> 10	–	–	–
Cc1cc([N+](=O)[O-])c(C)c2c1[nH]c1ccc(Cl)cc12	–	> 100 µM	–	> 100 µM	–	> 100 µM	–	> 100 µM	–	> 100 µM	–	–	46	> 100 µM	> 100	–	–	–	–
Cc1c2ccnc(C(N)=O)c2c(C)c2c1[nH]c1ccccc12	4.12	23.2 µM and 20.4 µM	–	25.1 µM and 12.9 µM	2.62	16.2 µM and 13.7 µM	4.87	19.1 µM and > 100 µM	–	45.6 µM and 40.8 µM	–	15.8 µM and 20.4 µM	31.6	34.8 µM and 32.1 µM	22.5	–	5.94	–	–
CCOC(=O)C1C(c2ccc(Cl)cc2Cl)NC(c2ccc(C)cc2)C(C(=O)OC)S1(=O)=O (configuration not stated)	–	> 100 µM	–	> 100 µM	–	> 100 µM	–	> 100 µM	–	> 100 µM	–	> 100 µM	> 100	> 100 µM	> 100	–	–	–	–
O=C(c1ccco1)N(C(=O)N1CCCCC1)c1ccccc1	–	> 100 µM	–	> 100 µM	–	–	–	> 100 µM	–	> 100 µM	–	> 100 µM	–	> 100 µM	> 100	> 100	–	–	–
C[C@]12CCC3[C@@H](CCC45OC4C(=O)CC[C@]35C)C1Cc1cnn(-c3ccc(F)cc3)c1N2 (some centres not stated)	–	33 µM	–	94.7 µM	–	> 100 µM	–	> 100 µM	–	97 µM	–	68.9 µM	34.8	–	> 100	–	–	–	–
O=[N+]([O-])c1cccc(C2=NN(c3ccccc3)C3c4cc(Br)ccc4OCC23)c1 (configuration not stated)	–	> 100 µM	–	> 100 µM	–	> 100 µM	–	> 100 µM	–	> 100 µM	–	–	> 100	> 100 µM	> 100	–	–	–	–
N#CNC(N)=NCc1ccccc1	–	> 100 µM	–	> 100 µM	–	> 100 µM	–	> 100 µM	–	–	–	–	> 100	> 100 µM	> 100	–	–	–	–
CC1=NN(C(=O)Cc2ccccc2)C(=O)/C1=C\c1ccc(O)cc1	–	> 100 µM	–	> 100 µM	–	> 100 µM	–	> 100 µM	–	> 100 µM	–	> 100 µM	> 100	> 100 µM	> 100	–	–	–	–
COC(=O)/C=C(\C)CC/C=C(\C)CCC1OC1(C)C (configuration not stated)	–	27.6 µM	–	24.4 µM	–	24.2 µM	–	25.7 µM	–	28.4 µM	–	19.8 µM	–	21.8 µM	22.7	–	–	–	–
CCCCCCCC(=O)OCC(COC(=O)C(C)(C)C)OC(=O)Cc1ccccc1 (configuration not stated)	–	–	–	> 100 µM	–	> 100 µM	–	> 100 µM	–	> 100 µM	–	> 100 µM	–	> 100 µM	> 100	–	–	–	–
COc1cc(C)c(CC/C(C)=C/Cc2cc(O)ccc2O)c(C)c1C	–	> 25 µM	–	> 25 µM	–	> 25 µM	–	> 25 µM	–	> 25 µM	–	–	> 25	> 25 µM	> 25	–	–	–	–
CN(C)C(=O)C(F)(F)C(c1ccc(F)cc1)C1C(=O)N(C)C(=O)N(C)C1=O (configuration not stated)	–	–	–	> 100 µM	–	> 100 µM	–	> 100 µM	–	> 100 µM	–	> 100 µM	–	> 100 µM	> 100	> 100	–	–	–
CCCCCCCCCCCCCCCCCCOc1ccccc1CC(=O)NCC[N+]1(C)CCOCC1	2.05	5.19 µM	–	–	3.31	17.4 µM	5.56	29.9 µM	3.76	22.5 µM	4.31	30.7 µM	5.05	34.2 µM	5.9	–	4.43	1.95	1.9
